Source: the NIST ThermoML archive (doi:10.1016/j.jct.2015.06.014)
Numbers after ± are expanded uncertainties.

Assay: molar heat capacity at constant pressure
Conditions: Liquid, Large sample (1 g) DSC

## FC(F)(F)CC(F)(F)F [1,1,1,3,3,3-hexafluoropropane]
315.15 K, 1480 kPa
  molar heat capacity at constant pressure: 195.67 ± 6.8 J/K/mol
315.15 K, 2490 kPa
  molar heat capacity at constant pressure: 193.7 ± 6.8 J/K/mol
315.15 K, 3540 kPa
  molar heat capacity at constant pressure: 192.48 ± 6.7 J/K/mol
315.15 K, 4560 kPa
  molar heat capacity at constant pressure: 191.42 ± 6.7 J/K/mol
315.15 K, 5410 kPa
  molar heat capacity at constant pressure: 190.05 ± 6.7 J/K/mol
320.15 K, 1480 kPa
  molar heat capacity at constant pressure: 198.71 ± 7 J/K/mol
320.15 K, 2490 kPa
  molar heat capacity at constant pressure: 196.59 ± 6.8 J/K/mol
320.15 K, 3540 kPa
  molar heat capacity at constant pressure: 194.91 ± 6.8 J/K/mol
320.15 K, 4560 kPa
  molar heat capacity at constant pressure: 193.7 ± 6.8 J/K/mol
320.15 K, 5410 kPa
  molar heat capacity at constant pressure: 192.78 ± 6.7 J/K/mol
325.15 K, 1480 kPa
  molar heat capacity at constant pressure: 202.06 ± 7.1 J/K/mol
325.15 K, 2490 kPa
  molar heat capacity at constant pressure: 199.78 ± 7 J/K/mol
325.15 K, 3540 kPa
  molar heat capacity at constant pressure: 197.95 ± 7 J/K/mol
325.15 K, 4560 kPa
  molar heat capacity at constant pressure: 196.43 ± 6.8 J/K/mol
325.15 K, 5410 kPa
  molar heat capacity at constant pressure: 195.67 ± 6.8 J/K/mol
330.15 K, 1480 kPa
  molar heat capacity at constant pressure: 205.71 ± 7.1 J/K/mol
330.15 K, 2490 kPa
  molar heat capacity at constant pressure: 203.28 ± 7.1 J/K/mol
330.15 K, 3540 kPa
  molar heat capacity at constant pressure: 201.45 ± 7 J/K/mol
330.15 K, 4560 kPa
  molar heat capacity at constant pressure: 199.78 ± 7 J/K/mol
330.15 K, 5410 kPa
  molar heat capacity at constant pressure: 199.02 ± 7 J/K/mol
335.15 K, 1480 kPa
  molar heat capacity at constant pressure: 209.36 ± 7.3 J/K/mol
335.15 K, 2490 kPa
  molar heat capacity at constant pressure: 207.08 ± 7.3 J/K/mol
335.15 K, 3540 kPa
  molar heat capacity at constant pressure: 205.1 ± 7.1 J/K/mol
335.15 K, 4560 kPa
  molar heat capacity at constant pressure: 203.28 ± 7.1 J/K/mol
335.15 K, 5410 kPa
  molar heat capacity at constant pressure: 202.21 ± 7.1 J/K/mol
340.15 K, 1480 kPa
  molar heat capacity at constant pressure: 213.46 ± 7.4 J/K/mol
340.15 K, 2490 kPa
  molar heat capacity at constant pressure: 210.73 ± 7.3 J/K/mol
340.15 K, 3540 kPa
  molar heat capacity at constant pressure: 208.6 ± 7.3 J/K/mol
340.15 K, 4560 kPa
  molar heat capacity at constant pressure: 206.77 ± 7.3 J/K/mol
340.15 K, 5410 kPa
  molar heat capacity at constant pressure: 205.56 ± 7.1 J/K/mol
345.15 K, 1480 kPa
  molar heat capacity at constant pressure: 218.02 ± 7.6 J/K/mol
345.15 K, 2490 kPa
  molar heat capacity at constant pressure: 214.83 ± 7.4 J/K/mol
345.15 K, 3540 kPa
  molar heat capacity at constant pressure: 212.25 ± 7.4 J/K/mol
345.15 K, 4560 kPa
  molar heat capacity at constant pressure: 210.27 ± 7.3 J/K/mol
345.15 K, 5410 kPa
  molar heat capacity at constant pressure: 208.9 ± 7.3 J/K/mol
350.15 K, 1480 kPa
  molar heat capacity at constant pressure: 223.34 ± 7.8 J/K/mol
350.15 K, 2490 kPa
  molar heat capacity at constant pressure: 219.24 ± 7.6 J/K/mol
350.15 K, 3540 kPa
  molar heat capacity at constant pressure: 216.35 ± 7.6 J/K/mol
350.15 K, 4560 kPa
  molar heat capacity at constant pressure: 214.07 ± 7.4 J/K/mol
350.15 K, 5410 kPa
  molar heat capacity at constant pressure: 212.4 ± 7.4 J/K/mol
355.15 K, 2490 kPa
  molar heat capacity at constant pressure: 224.56 ± 7.9 J/K/mol
355.15 K, 3540 kPa
  molar heat capacity at constant pressure: 221.22 ± 7.8 J/K/mol
355.15 K, 4560 kPa
  molar heat capacity at constant pressure: 218.33 ± 7.6 J/K/mol
355.15 K, 5410 kPa
  molar heat capacity at constant pressure: 216.35 ± 7.6 J/K/mol
360.15 K, 2490 kPa
  molar heat capacity at constant pressure: 231.1 ± 8.1 J/K/mol
360.15 K, 3540 kPa
  molar heat capacity at constant pressure: 226.84 ± 7.9 J/K/mol
360.15 K, 4560 kPa
  molar heat capacity at constant pressure: 223.5 ± 7.8 J/K/mol
360.15 K, 5410 kPa
  molar heat capacity at constant pressure: 221.06 ± 7.8 J/K/mol
365.15 K, 2490 kPa
  molar heat capacity at constant pressure: 239.92 ± 8.4 J/K/mol
365.15 K, 3540 kPa
  molar heat capacity at constant pressure: 233.53 ± 8.2 J/K/mol
365.15 K, 4560 kPa
  molar heat capacity at constant pressure: 230.49 ± 8.1 J/K/mol
365.15 K, 5410 kPa
  molar heat capacity at constant pressure: 227.45 ± 7.9 J/K/mol

## FC(F)CC(F)(F)F [1,1,1,3,3-pentafluoropropane]
315.15 K, 1590 kPa
  molar heat capacity at constant pressure: 184.58 ± 7.1 J/K/mol
315.15 K, 2520 kPa
  molar heat capacity at constant pressure: 184.05 ± 7.1 J/K/mol
315.15 K, 3480 kPa
  molar heat capacity at constant pressure: 183.78 ± 7.1 J/K/mol
315.15 K, 4530 kPa
  molar heat capacity at constant pressure: 182.98 ± 7.1 J/K/mol
315.15 K, 5500 kPa
  molar heat capacity at constant pressure: 182.44 ± 7.1 J/K/mol
320.15 K, 1590 kPa
  molar heat capacity at constant pressure: 185.79 ± 7.2 J/K/mol
320.15 K, 2520 kPa
  molar heat capacity at constant pressure: 185.12 ± 7.1 J/K/mol
320.15 K, 3480 kPa
  molar heat capacity at constant pressure: 184.72 ± 7.1 J/K/mol
320.15 K, 4530 kPa
  molar heat capacity at constant pressure: 183.91 ± 7.1 J/K/mol
320.15 K, 5500 kPa
  molar heat capacity at constant pressure: 183.24 ± 7.1 J/K/mol
325.15 K, 1590 kPa
  molar heat capacity at constant pressure: 187.8 ± 7.2 J/K/mol
325.15 K, 2520 kPa
  molar heat capacity at constant pressure: 186.73 ± 7.2 J/K/mol
325.15 K, 3480 kPa
  molar heat capacity at constant pressure: 186.19 ± 7.2 J/K/mol
325.15 K, 4530 kPa
  molar heat capacity at constant pressure: 185.39 ± 7.1 J/K/mol
325.15 K, 5500 kPa
  molar heat capacity at constant pressure: 184.58 ± 7.1 J/K/mol
330.15 K, 1590 kPa
  molar heat capacity at constant pressure: 191.02 ± 7.4 J/K/mol
330.15 K, 2520 kPa
  molar heat capacity at constant pressure: 189.95 ± 7.4 J/K/mol
330.15 K, 3480 kPa
  molar heat capacity at constant pressure: 189.01 ± 7.4 J/K/mol
330.15 K, 4530 kPa
  molar heat capacity at constant pressure: 188.07 ± 7.2 J/K/mol
330.15 K, 5500 kPa
  molar heat capacity at constant pressure: 187.13 ± 7.2 J/K/mol
335.15 K, 1590 kPa
  molar heat capacity at constant pressure: 195.31 ± 7.5 J/K/mol
335.15 K, 2520 kPa
  molar heat capacity at constant pressure: 194.37 ± 7.5 J/K/mol
335.15 K, 3480 kPa
  molar heat capacity at constant pressure: 193.16 ± 7.5 J/K/mol
335.15 K, 4530 kPa
  molar heat capacity at constant pressure: 191.82 ± 7.4 J/K/mol
335.15 K, 5500 kPa
  molar heat capacity at constant pressure: 191.02 ± 7.4 J/K/mol
340.15 K, 1590 kPa
  molar heat capacity at constant pressure: 200.13 ± 7.8 J/K/mol
340.15 K, 2520 kPa
  molar heat capacity at constant pressure: 199.2 ± 7.6 J/K/mol
340.15 K, 3480 kPa
  molar heat capacity at constant pressure: 197.85 ± 7.6 J/K/mol
340.15 K, 4530 kPa
  molar heat capacity at constant pressure: 196.25 ± 7.6 J/K/mol
340.15 K, 5500 kPa
  molar heat capacity at constant pressure: 195.44 ± 7.5 J/K/mol
345.15 K, 1590 kPa
  molar heat capacity at constant pressure: 204.83 ± 7.9 J/K/mol
345.15 K, 2520 kPa
  molar heat capacity at constant pressure: 204.02 ± 7.9 J/K/mol
345.15 K, 3480 kPa
  molar heat capacity at constant pressure: 202.55 ± 7.8 J/K/mol
345.15 K, 4530 kPa
  molar heat capacity at constant pressure: 200.94 ± 7.8 J/K/mol
345.15 K, 5500 kPa
  molar heat capacity at constant pressure: 200.13 ± 7.8 J/K/mol
350.15 K, 1590 kPa
  molar heat capacity at constant pressure: 209.52 ± 8 J/K/mol
350.15 K, 2520 kPa
  molar heat capacity at constant pressure: 208.44 ± 8 J/K/mol
350.15 K, 3480 kPa
  molar heat capacity at constant pressure: 207.1 ± 8 J/K/mol
350.15 K, 4530 kPa
  molar heat capacity at constant pressure: 205.5 ± 7.9 J/K/mol
350.15 K, 5500 kPa
  molar heat capacity at constant pressure: 204.56 ± 7.9 J/K/mol
355.15 K, 1590 kPa
  molar heat capacity at constant pressure: 214.07 ± 8.3 J/K/mol
355.15 K, 2520 kPa
  molar heat capacity at constant pressure: 212.73 ± 8.2 J/K/mol
355.15 K, 3480 kPa
  molar heat capacity at constant pressure: 211.66 ± 8.2 J/K/mol
355.15 K, 4530 kPa
  molar heat capacity at constant pressure: 210.05 ± 8.2 J/K/mol
355.15 K, 5500 kPa
  molar heat capacity at constant pressure: 208.98 ± 8 J/K/mol
360.15 K, 1590 kPa
  molar heat capacity at constant pressure: 219.3 ± 8.4 J/K/mol
360.15 K, 2520 kPa
  molar heat capacity at constant pressure: 217.69 ± 8.4 J/K/mol
360.15 K, 3480 kPa
  molar heat capacity at constant pressure: 216.76 ± 8.4 J/K/mol
360.15 K, 4530 kPa
  molar heat capacity at constant pressure: 214.74 ± 8.3 J/K/mol
360.15 K, 5500 kPa
  molar heat capacity at constant pressure: 213.67 ± 8.3 J/K/mol
365.15 K, 1590 kPa
  molar heat capacity at constant pressure: 226.54 ± 8.7 J/K/mol
365.15 K, 2520 kPa
  molar heat capacity at constant pressure: 224.26 ± 8.7 J/K/mol
365.15 K, 3480 kPa
  molar heat capacity at constant pressure: 222.65 ± 8.6 J/K/mol
365.15 K, 4530 kPa
  molar heat capacity at constant pressure: 220.51 ± 8.6 J/K/mol
365.15 K, 5500 kPa
  molar heat capacity at constant pressure: 219.44 ± 8.4 J/K/mol
